Measurements: patent US20250121013A1, “USE OF BACILLUS AMYLOLIQUEFACIENS FOR PREVENTING AND TREATING PARKINSON'S DISEASE” (Artugen Therapeutics Ltd., priority 2021, published 2025)

Assays:
MPTP-induced model of PD [1] = assay: MPTP-induced mouse model of PD, striatal dopamine and DOPAC (Example 1); assay type: in vivo
Procedure: • Route(s) of administration: IP for MPTP (1-Methyl-4-phenyl-1,2,3,6-tetrahydropyridine hydrochloride) and vehicle, PO for ART24 and vehicle (trehalose) • Dose Volume(s): 10 mL/kg for MPTP, 0.1 mL for ART24 • Formulation(s): PBS for MPTP; saline-based formulation for ART24 • Dose Levels: 20 mg/kg for MPTP, for ART24 • Dose Frequency: 4 doses (QD) for MPTP; 11 days BID for ART24 • Study duration: 11 days • Number of Groups: 4 • Number of animals per group: 13 • Total number of animals: 52 (57 animals were enrolled in the study)
MPTP model. MPTP was formulated in phosphate buffered saline (PBS) and administered to mice QD for 4 days at a dose of 20 mg/kg (2 mg/mL delivered as 10 mL/kg).
Neurotransmitter measurements (DA and DOPAC). 10 mice from each were anesthetized and blood collected into K2EDTA tubes by a cardiac puncture. Brains were extracted and dissected. The rostral part was dissected and striata removed. The striata were frozen and subsequently evaluated for levels of dopamine and metabolites.
Striata were homogenized in 0.3M perchloric acid. The resulting supernatant was analyzed for levels of monoamines by reverse phase HPLC-ECD.
Data analysis. Data were analyzed using a two-way repeated measures ANOVA with a post hoc Fisher's LSD multiple comparison test. The raw data were also analyzed for outliers using ROUT method (Q=1%). GraphPad Prism 9 was used for data analysis and presentation.

MPTP-induced model of PD [2] = assay: Locomotion activity in MPTP zebrafish model (Example 6); assay type: in vivo; conditions: larvae; MPTP 250 μM 96 to 120 hpf; ART24 4×10^6 CFU/mL in water of MPTP-exposed fish; 50 min alternating dark/light
Procedure: Zebrafish larvae were dosed with MPTP (250 μM; 96 to 120 hours post fertilization) or sham treated (DMSO only; n=22) in water. ART24 was dosed in water of MPTP-exposed fish (4×10^6 CFU/mL; n=16). Movement was evaluated with an imaging system during 50 min of testing consisting of 10-min periods of alternating darkness/bright light. Data was analyzed by one-way ANOVA followed by a Dunnet test comparing against MPTP treatment.

ART24 [3] = assay: Antibiotic susceptibility of ART24, MIC, VetMIC panels (Table 2); assay type: cell-based, Bacillus amyloliquefaciens; conditions: Bacillus amyloliquefaciens; 24 hr at 37° C.; average results from N = 6; read-out: ART24 MIC
Procedure: The minimum inhibitory concentration (MIC) of the listed antimicrobials is expressed as μg/mL. […] The wells of the prefabricated 96-well plates were filled with 100 μL of the final suspension. The plates were sealed with an […], Sigma Aldrich) sealing film (to facilitate growth of the aerobic Bacillus. The plates were then incubated for 24 hr at 37° C. The results are recorded after 24 hours as the lowest concentration of the antibiotic to inhibit visible growth. The prefabricated panels […], Uppsala, Sweden) comprising the antibiotics ampicillin, vancomycin, gentamicin, kanamycin, streptomycin, erythromycin, clindamycin, tetracycline, chloramphenicol, neomycin, penicillin, quinupristin-dalfopristin, linezolid, trimethoprim, ciprofloxacin and rifampicin were used.

ART24 [4] = assay: Antibiotic susceptibility of ART24 lots and cell banks, MIC following EFSA testing recommendations (Table 3); assay type: cell-based, Bacillus amyloliquefaciens; conditions: for MIC: Bacillus amyloliquefaciens
Procedure: The minimum inhibitory concentration (MIC) of the listed antimicrobials is expressed as μg/mL. Additional studies following EFSA testing recommendations were performed on lyophilized ART24 lots CO-33-10A2 and CO-33-12A2 and Research and Master Cell Banks CO-33-ART24 BHI and CO-33-ART24 SYD, and those results are shown in Table 3.

[5] = MPTP 20 mg/kg IP QD 4 days compared to saline/vehicle treated animals
[6] = ART24 source: cell bank CO-33 ART 24 BHI
[7] = ART24 source: cell bank CO-33 ART 024 SYD
[8] = ART24 source: lyophilized lot CO-33-10A2
[9] = ART24 source: lyophilized lot CO-33-12A2
[10] = ART24 source: cell bank CO-33 ART 24 BHI, read-out: MIC, CO-33 ART 24 BHI
[11] = ART24 source: cell bank CO-33 ART 024 SYD, read-out: MIC, CO-33 ART 024 SYD
[12] = ART24 source: lyophilized lot CO-33-10A2, read-out: MIC, CO-33-10A2
[13] = ART24 source: lyophilized lot CO-33-12A2, read-out: MIC, CO-33-12A2
[14] = compared to saline/MPTP dosed animals, PO BID Day -3 to Day 7, MPTP 20 mg/kg IP QD 4 days, n=10/group

Structure (SMILES)	DOPAC content in the striatum (MPTP-induced model of PD [1]; [5])	dopamine content in the striatum (MPTP-induced model of PD [1]; [5])	total motor movement distance (MPTP-induced model of PD [2])	MIC (ART24 [3])	MIC interpretation, CO-33 ART 24 BHI (ART24 [4]; [6])	MIC interpretation, CO-33 ART 024 SYD (ART24 [4]; [7])	MIC interpretation, CO-33-10A2 (ART24 [4]; [8])	MIC interpretation, CO-33-12A2 (ART24 [4]; [9])	MIC (ART24 [4]; [10])	MIC (ART24 [4]; [11])	MIC (ART24 [4]; [12])	MIC (ART24 [4]; [13])	DOPAC concentration in the striatum (MPTP-induced model of PD [1]; [14])	dopamine concentration in the striatum (MPTP-induced model of PD [1]; [14])
CN1CC=C(c2ccccc2)CC1.Cl [MPTP, 1-Methyl-4-phenyl-1,2,3,6-tetrahydropyridine hydrochloride]	significant depletion	significant depletion	24 % of sham	–	–	–	–	–	–	–	–	–	–	–
NC[C@H]1O[C@H](O[C@H]2[C@H](O)[C@@H](O[C@H]3O[C@H](CO)[C@@H](O)[C@H](N)[C@H]3O)[C@H](N)C[C@@H]2N)[C@H](O)[C@@H](O)[C@@H]1O [Kanamycin]	–	–	–	≤ 2 µg/mL	S	S	S	S	≤ 0.5 µg/mL	≤ 0.5 µg/mL	≤ 0.5 µg/mL	≤ 0.5 µg/mL	–	–
OC[C@H]1O[C@H](O[C@H]2O[C@H](CO)[C@@H](O)[C@H](O)[C@H]2O)[C@H](O)[C@@H](O)[C@@H]1O [trehalose]	–	–	–	–	–	–	–	–	–	–	–	–	did not produce a significant effect	did not produce a significant effect
O=C(O)c1cn(C2CC2)c2cc(N3CCNCC3)c(F)cc2c1=O [Ciprofloxacin]	–	–	–	≤ 0.25 µg/mL	S	S	S	S	≤ 0.03 µg/mL	≤ 0.03 µg/mL	≤ 0.03 µg/mL	≤ 0.03 µg/mL	–	–
